Source: PubChem BioAssay (NCI)
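Values below derive from 48-hour exposures of cells grown in 96-well plates, with endpoints linearly interpolated between the two concentrations bracketing the appropriate inhibition level. The concentration for full growth arrest is given as TGI.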

Tests used:
Assay in all cases: DTP human tumour cell line panel, 48 h
[1] = tested on: CCRF-CEM leukemia
[2] = tested on: PC-3 prostate
[3] = tested on: SW-620 colon
[4] = tested on: MDA-MB-231 breast
[5] = tested on: T-47D breast
[6] = tested on: HOP-92 NSCLC
[7] = tested on: NCI-H23 lung
[8] = tested on: SNB-75 CNS
[9] = tested on: HOP-62 NSCLC
[10] = tested on: UO-31 renal
[11] = tested on: ACHN renal
[12] = tested on: HL-60(TB) leukemia
[13] = tested on: UACC-62 melanoma
[14] = tested on: MDA-MB-435
[15] = tested on: K-562 leukemia
[16] = tested on: A549 NSCLC
[17] = tested on: SF-539 CNS
[18] = tested on: HCT-15 colon
[19] = tested on: NCI/ADR-RES ovarian
[20] = tested on: LOX IMVI melanoma
[21] = tested on: SK-MEL-5 melanoma
[22] = tested on: MOLT-4 leukemia
[23] = tested on: UACC-257 melanoma
[24] = tested on: MDA-N
[25] = tested on: SN12C renal
[26] = tested on: RXF 393 renal
[27] = tested on: DU-145 prostate
[28] = tested on: SF-268 CNS
[29] = tested on: NCI-H460 lung
[30] = tested on: COLO 205 colon
[31] = tested on: SNB-19 CNS
[32] = tested on: U251 CNS
[33] = tested on: SK-OV-3 ovarian
[34] = tested on: OVCAR-8 ovarian
[35] = tested on: OVCAR-5 ovarian
[36] = tested on: HCT-116 colon
[37] = tested on: MALME-3M melanoma
[38] = tested on: MCF7 breast
[39] = tested on: OVCAR-4 ovarian
[40] = tested on: HCC-2998 colon
[41] = tested on: SK-MEL-2 melanoma
[42] = tested on: SF-295 CNS
[43] = tested on: HT29 colon
[44] = tested on: 786-0 renal
[45] = tested on: BT-549 breast
[46] = tested on: NCI-H226 lung
[47] = tested on: RPMI-8226 leukemia
[48] = tested on: SR leukemia
[49] = tested on: KM12 colon
[50] = tested on: EKVX NSCLC
[51] = tested on: M14 melanoma
[52] = tested on: NCI-H522 lung
[53] = tested on: IGROV1 ovarian
[54] = tested on: TK-10 renal
[55] = tested on: OVCAR-3 ovarian
[56] = tested on: CAKI-1 renal
[57] = tested on: A498 renal
[58] = tested on: SK-MEL-28 melanoma
[59] = tested on: HS 578T breast

Structure (SMILES): CC(=O)Nc1ccccc1SCCSSCCSc1ccccc1NC(C)=O
- TGI [1]: 70.4 µM
- TGI [2]: > 100 µM
- TGI [3]: > 100 µM
- TGI [4]: 91.4 µM
- TGI [5]: 92.9 µM
- TGI [6]: 64.4 µM
- TGI [7]: 83.9 µM
- TGI [8]: 73.2 µM
- TGI [9]: > 100 µM
- TGI [10]: 35.8 µM
- TGI [11]: 39.1 µM
- TGI [12]: 44.8 µM
- TGI [13]: > 100 µM
- TGI [14]: 41.1 µM
- TGI [15]: > 100 µM
- TGI [16]: 69.8 µM
- TGI [17]: 52.1 µM
- TGI [18]: 42.2 µM
- TGI [19]: 94.8 µM
- TGI [20]: 38.7 µM
- TGI [21]: > 100 µM
- TGI [22]: > 100 µM
- TGI [23]: 45 µM
- TGI [24]: 68.7 µM
- TGI [25]: > 100 µM
- TGI [26]: > 100 µM
- TGI [27]: 88.7 µM
- TGI [28]: > 100 µM
- TGI [29]: 68.6 µM
- TGI [30]: 40.5 µM
- TGI [31]: 36.7 µM
- TGI [32]: 70.2 µM
- TGI [33]: 61.7 µM
- TGI [34]: > 100 µM
- TGI [35]: 79.2 µM
- TGI [36]: > 100 µM
- TGI [37]: > 100 µM
- TGI [38]: > 100 µM
- TGI [39]: 57.1 µM
- TGI [40]: 50.8 µM
- TGI [41]: 86.5 µM
- TGI [42]: 73.7 µM
- TGI [43]: 76.8 µM
- TGI [44]: 64.3 µM
- TGI [45]: > 100 µM
- TGI [46]: 81.8 µM
- TGI [47]: 42.2 µM
- TGI [48]: > 100 µM
- TGI [49]: > 100 µM
- TGI [50]: > 100 µM
- TGI [51]: > 100 µM
- TGI [52]: 34.3 µM
- TGI [53]: 46.8 µM
- TGI [54]: > 100 µM
- TGI [55]: > 100 µM
- TGI [56]: 83.4 µM

Structure (SMILES): CC1(C)CC(=O)c2c(nc3ccc4ccccc4c3c2-c2ccc(NC(=O)CCCC(=O)Nc3ccc(-c4c5c(nc6ccc7ccccc7c46)CC(C)(C)CC5=O)cc3)cc2)C1
- TGI [57]: > 100 µM
- TGI [1]: > 100 µM
- TGI [2]: > 100 µM
- TGI [3]: > 100 µM
- TGI [4]: > 100 µM
- TGI [5]: > 100 µM
- TGI [6]: > 100 µM
- TGI [58]: > 100 µM
- TGI [7]: > 100 µM
- TGI [8]: > 100 µM
- TGI [9]: > 100 µM
- TGI [10]: > 100 µM
- TGI [11]: > 100 µM
- TGI [12]: > 100 µM
- TGI [13]: > 100 µM
- TGI [14]: > 100 µM
- TGI [15]: > 100 µM
- TGI [16]: > 100 µM
- TGI [17]: > 100 µM
- TGI [18]: > 100 µM
- TGI [19]: > 100 µM
- TGI [20]: > 100 µM
- TGI [21]: > 100 µM
- TGI [22]: > 100 µM
- TGI [23]: > 100 µM
- TGI [24]: > 100 µM
- TGI [25]: > 100 µM
- TGI [27]: > 100 µM
- TGI [28]: > 100 µM
- TGI [29]: > 100 µM
- TGI [30]: > 100 µM
- TGI [31]: > 100 µM
- TGI [32]: > 100 µM
- TGI [33]: > 100 µM
- TGI [34]: > 100 µM
- TGI [35]: > 100 µM
- TGI [36]: > 100 µM
- TGI [38]: > 100 µM
- TGI [41]: > 100 µM
- TGI [42]: > 100 µM
- TGI [59]: > 100 µM
- TGI [43]: > 100 µM
- TGI [44]: > 100 µM
- TGI [45]: > 100 µM
- TGI [46]: > 100 µM
- TGI [47]: > 100 µM
- TGI [48]: > 100 µM
- TGI [49]: > 100 µM
- TGI [50]: > 100 µM
- TGI [51]: > 100 µM
- TGI [53]: > 100 µM
- TGI [54]: > 100 µM
- TGI [55]: > 100 µM
- TGI [56]: > 100 µM

Structure (SMILES): O=C(O)C/C=C/CC(=O)O
- TGI [57]: > 100 µM
- TGI [1]: > 100 µM
- TGI [2]: > 100 µM
- TGI [3]: > 100 µM
- TGI [4]: > 100 µM
- TGI [5]: > 100 µM
- TGI [58]: > 100 µM
- TGI [7]: > 100 µM
- TGI [8]: > 100 µM
- TGI [9]: > 100 µM
- TGI [10]: > 100 µM
- TGI [11]: > 100 µM
- TGI [12]: > 100 µM
- TGI [13]: > 100 µM
- TGI [14]: > 100 µM
- TGI [15]: > 100 µM
- TGI [16]: > 100 µM
- TGI [18]: > 100 µM
- TGI [19]: > 100 µM
- TGI [20]: > 100 µM
- TGI [21]: > 100 µM
- TGI [22]: > 100 µM
- TGI [23]: > 100 µM
- TGI [24]: > 100 µM
- TGI [25]: > 100 µM
- TGI [26]: > 100 µM
- TGI [27]: > 100 µM
- TGI [28]: > 100 µM
- TGI [29]: > 100 µM
- TGI [30]: > 100 µM
- TGI [31]: > 100 µM
- TGI [32]: > 100 µM
- TGI [33]: > 100 µM
- TGI [34]: > 100 µM
- TGI [35]: > 100 µM
- TGI [36]: > 100 µM
- TGI [37]: > 100 µM
- TGI [38]: > 100 µM
- TGI [39]: > 100 µM
- TGI [40]: > 100 µM
- TGI [41]: > 100 µM
- TGI [42]: > 100 µM
- TGI [59]: > 100 µM
- TGI [43]: > 100 µM
- TGI [44]: > 100 µM
- TGI [45]: > 100 µM
- TGI [46]: > 100 µM
- TGI [47]: > 100 µM
- TGI [48]: > 100 µM
- TGI [49]: > 100 µM
- TGI [50]: > 100 µM
- TGI [51]: > 100 µM
- TGI [52]: > 100 µM
- TGI [53]: > 100 µM
- TGI [54]: > 100 µM
- TGI [55]: > 100 µM
- TGI [56]: > 100 µM

Structure (SMILES): CCOC(=O)/C(Cl)=C(\C)Nc1nc2c(ccc3ccccc32)s1
- TGI [57]: > 100 µM
- TGI [1]: > 100 µM
- TGI [2]: > 100 µM
- TGI [3]: > 100 µM
- TGI [4]: > 100 µM
- TGI [5]: 43.6 µM
- TGI [58]: > 100 µM
- TGI [7]: > 100 µM
- TGI [8]: > 100 µM
- TGI [9]: > 100 µM
- TGI [10]: > 100 µM
- TGI [11]: > 100 µM
- TGI [12]: > 100 µM
- TGI [13]: > 100 µM
- TGI [15]: > 100 µM
- TGI [18]: > 100 µM
- TGI [19]: > 100 µM
- TGI [21]: > 100 µM
- TGI [22]: > 100 µM
- TGI [23]: > 100 µM
- TGI [24]: > 100 µM
- TGI [25]: > 100 µM
- TGI [27]: 46.6 µM
- TGI [28]: > 100 µM
- TGI [29]: 69.3 µM
- TGI [30]: > 100 µM
- TGI [31]: > 100 µM
- TGI [32]: > 100 µM
- TGI [33]: > 100 µM
- TGI [34]: > 100 µM
- TGI [35]: > 100 µM
- TGI [36]: > 100 µM
- TGI [37]: > 100 µM
- TGI [38]: > 100 µM
- TGI [39]: > 100 µM
- TGI [40]: 39.2 µM
- TGI [41]: 60.1 µM
- TGI [42]: > 100 µM
- TGI [59]: > 100 µM
- TGI [43]: > 100 µM
- TGI [45]: > 100 µM
- TGI [46]: > 100 µM
- TGI [48]: 77.1 µM
- TGI [49]: > 100 µM
- TGI [50]: > 100 µM
- TGI [51]: > 100 µM
- TGI [52]: 70.9 µM
- TGI [53]: > 100 µM
- TGI [54]: > 100 µM
- TGI [55]: > 100 µM
- TGI [56]: > 100 µM
